Experimental data as given in patent US20250090571A1, “CARD9 ATTENUATES AB PATHOLOGY AND MODIFIES MICROGLIAL RESPONSES IN AN ALZHEIMER’S DISEASE” (University of Virginia Patent Foundation, priority 2023, published 2025).

Key:
Format in all cases: in vivo, mouse
[1] = system: 5×FAD mice; experiment: Microglia depletion with PLX5622 chow, microgliosis and Aβ load in the cortex; details: PLX5622 chow for 2.5 months, vs normal chow
Experimental: (§1) As previously published (110), brain sections were blocked for 1 hour at room temperature with 2% donkey serum, 1% bovine serum albumin, 0.1% triton, 0.05% tween in PBS prior to incubation with primary antibodies. The primary antibodies were then diluted in this block overnight at 4° C. Brain sections were stained with anti-Aβ (D54D2, Cell Signaling, 1:300 dilution) to label plaques. To assess neuronal cell death, sections were stained with anti-NeuN (MAβ377, Millipore Sigma, 1:500 dilution) and TUNEL (Millipore Sigma, 11684795910, according to the manufacturer's instructions). In order to analyze microglia, sections were stained with IBA1 (ab5076, Abcam, 1:300 dilution). Microglial proliferation was assessed using Ki67-EF660 (SolA15, Thermo Fisher, 1:100 dilution). Microglial iron accumulation was measured using Ferritin Heavy Chain (PA5-27500, Thermo Fisher, 1:500). Following primary antibody incubation, sections were then washed 3 times for 10 minutes at room temperature in PBS and 0.05% tween-20. After washing, the brain sections were incubated in respective donkey Alexa Fluor 488, 594, 647 anti-rabbit, -goat, -rat, -streptavidin, and-mouse (Thermo Fisher, 1:1000 dilution) for 2 hours at room temperature. Once again, brain sections were washed 3 times for 10 minutes at room temperature. […] Images were analyzed using FIJI software or Imaris software (9.5.1). […]

[2] = system: Card9−/−5×FAD mice; experiment: Microglia depletion with PLX5622 chow, microgliosis and Aβ load in the cortex (CARD9-deficient); details: PLX5622 chow for 2.5 months, vs control chow
Experimental: as §1

[3] = system: Card9−/−5×FAD mice; experiment: Intrahippocampal injection of pustulan, Aβ load in the hippocampus by immunofluorescence (CARD9-deficient control); details: 2-month-old Card9−/−5×FAD mice, 2 μg pustulan intrahippocampal, 7 days post-injection, vs vehicle-treated hemisphere
Experimental: as §1

[4] = system: 5×FAD mice; experiment: Intrahippocampal injection of pustulan, Aβ load in the hippocampus by immunofluorescence; details: 2-month-old 5×FAD mice, 2 μg pustulan intrahippocampal, 7 days post-injection, vs vehicle-treated hemisphere
Experimental: As previously published (110), brain sections were blocked for 1 hour at room temperature with 2% donkey serum, 1% bovine serum albumin, 0.1% triton, 0.05% tween in PBS prior to incubation with primary antibodies. The primary antibodies were then diluted in this block overnight at 4° C. Brain sections were stained with anti-Aβ (D54D2, Cell Signaling, 1:300 dilution) to label plaques. To assess neuronal cell death, sections were stained with anti-NeuN (MAβ377, Millipore Sigma, 1:500 dilution) and TUNEL (Millipore Sigma, 11684795910, according to the manufacturer's instructions). In order to analyze microglia, sections were stained with IBA1 (ab5076, Abcam, 1:300 dilution). Microglial proliferation was assessed using Ki67-EF660 (SolA15, Thermo Fisher, 1:100 dilution). Microglial iron accumulation was measured using Ferritin Heavy Chain (PA5-27500, Thermo Fisher, 1:500). Following primary antibody incubation, sections were then washed 3 times for 10 minutes at room temperature in PBS and 0.05% tween-20. After washing, the brain sections were incubated in respective donkey Alexa Fluor 488, 594, 647 anti-rabbit, -goat, -rat, -streptavidin, and-mouse (Thermo Fisher, 1:1000 dilution) for 2 hours at room temperature. Once again, brain sections were washed 3 times for 10 minutes at room temperature. […] Images were analyzed using FIJI software or Imaris software (9.5.1).
5×FAD and Card9^−/−5×FAD mice were anesthetized with a ketamine/xylazine cocktail before receiving a bilateral hippocampal injection of 2 μl of vehicle or 2 μg pustulan into the right and left hemisphere of the hippocampus (at +2 mm lateral, -2 mm posterior, and −2 mm ventral relative to the intersection of the coronal and sagittal suture (bregma) at a rate of 200 nl/min) using a stereotaxic frame (51730U, Stoelting) and nanoliter injector (NL2010MC2T, World Precision Instruments). […] Images were analyzed using FIJI software or Imaris software (9.5.1). […]

Row | Molecule | Aβ plaque load in the cortex [1] | Aβ plaque load in the cortex [2] | levels of Aβ in the hippocampus [3] | Aβ coverage in the hippocampus [4] | Aβ plaque volume in the hippocampus [4] | number of Aβ plaques in the hippocampus [4]
1 | COc1ncc(F)cc1CNc1ccc(Cc2c[nH]c3ncc(C)cc23)c(F)n1 [PLX5622] | significantly increased | did not significantly impact |  |  |  | 
2 | Pustulan |  |  | comparable levels of Aβ regardless of treatment | significantly reduced | lower plaque volume | fewer plaques
